Test results reported in patent US20240018211A1, “EXOSOME COMPRISING OVEREXPRESSED FC RECEPTOR OR PORTION THEREOF, AND METHOD FOR PREPARING SAME” (EXOCOBIO INC, priority 2021, published 2024).

System: MDA-MB-231 human breast cancer cell line
Conditions: MDA-MB-231, 10,000 cells/well; same amount of doxorubicin; exosomes 2.56×10^11 particles/mL; FIG. 11

`COc1cccc2c1C(=O)c1c(O)c3c(c(O)c1C2=O)C[C@@](O)(C(=O)CO)C[C@@H]3O[C@H]1C[C@H](N)[C@H](O)[C@H](C)O1` [doxorubicin] was tested, and the “growth of the breast cancer cells” value was “inhibited the growth of the breast cancer cells”.
